Activity calls are given as the source filed them. No cut-off for these calls is given here.

In series [1] the test system is C6. The series is described as follows: Antiproliferative activity against rat C6 cells assessed as growth inhibition incubated for 72 hrs by CCK-8 assay. In kind it is functional, cell-based. Conditions: C6, 72 h.
The subject of a further series is U-87 MG. Description: Antiproliferative activity against human U-87 MG cells assessed as growth inhibition incubated for 72 hrs by CCK-8 assay. In kind it is functional, cell-based, U-87MG ATCC.
The subject of another series is U-251. Description: Antiproliferative activity against human U-251 cells assessed as growth inhibition incubated for 72 hrs by CCK-8 assay. To be noted: U-251, 72 h. It counts as functional, cell-based.
For series [2], the target named is T1, Prostaglandin G/H synthase 2 (Homo sapiens, UniProt P35354).
T1 sequence (P35354 whole entry): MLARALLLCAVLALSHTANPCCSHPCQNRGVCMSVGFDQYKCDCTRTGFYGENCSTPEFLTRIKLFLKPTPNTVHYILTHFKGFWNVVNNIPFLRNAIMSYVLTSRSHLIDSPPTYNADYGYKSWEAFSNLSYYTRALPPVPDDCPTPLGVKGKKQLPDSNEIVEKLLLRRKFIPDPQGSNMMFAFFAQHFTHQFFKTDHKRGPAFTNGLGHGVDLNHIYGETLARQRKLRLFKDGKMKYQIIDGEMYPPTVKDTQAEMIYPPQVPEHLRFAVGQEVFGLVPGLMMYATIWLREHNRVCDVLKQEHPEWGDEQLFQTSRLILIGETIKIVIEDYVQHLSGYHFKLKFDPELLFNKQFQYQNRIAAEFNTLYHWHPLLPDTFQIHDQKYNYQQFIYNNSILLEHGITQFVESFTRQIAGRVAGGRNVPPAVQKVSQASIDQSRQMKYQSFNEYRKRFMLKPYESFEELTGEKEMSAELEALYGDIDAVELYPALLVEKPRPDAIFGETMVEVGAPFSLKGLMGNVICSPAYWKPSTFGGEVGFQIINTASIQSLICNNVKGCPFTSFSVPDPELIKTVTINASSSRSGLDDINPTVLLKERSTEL
The series is described as follows: Inhibition of human COX2 assessed as fluorescence by microplate reader.

The next series deals with BV-2. The series is described as follows: Inhibition of MMP9 production in mouse BV-2 cells co-cultured with rat C6 glioma cells at 2 uM incubated for 24 hrs by Western blot analysis. It counts as functional, cell-based.
The test system of series [3] is C6. Description: Antitumor activity against rat C6 cells inoculated orthotopic Sprague-Dawley rat model assessed as decrease in VEGF-A in tumor tissue at 50 mg/kg, ip twice a day treated 3 days after tumor cell injection measured for 13 days after tumor implantation by Western blot analysis. It counts as functional, organism-based. To be noted: time 3.0 day.
The test system of series [4] is C6. Description: Antitumor activity against rat C6 cells inoculated orthotopic Sprague-Dawley rat model assessed as reduction tumor volume at 50 mg/kg, ip twice a day treated 3 days after tumor cell injection measured for 13 days after tumor implantation. It counts as functional, organism-based. Conditions: time 3.0 day.
Series [5] relates to C6. Description: Antitumor activity against rat C6 cells inoculated orthotopic Sprague-Dawley rat model assessed as decrease in p-STAT3 in tumor tissue at 50 mg/kg, ip twice a day treated 3 days after tumor cell injection measured for 13 days after tumor implantation by Western blot analysis. In kind it is functional, organism-based. To be noted: time 3.0 day.
The subject of series [6] is C6. The series is described as follows: Antitumor activity against rat C6 cells inoculated orthotopic Sprague-Dawley rat model assessed as reduction tumor weight at 50 mg/kg, ip twice a day treated 3 days after tumor cell injection measured for 13 days after tumor implantation. To be noted: time 3.0 day. In kind it is functional, organism-based.
The test system of series [7] is C6. Description: Antitumor activity against rat C6 cells inoculated orthotopic Sprague-Dawley rat model assessed as tumor growth inhibition at 50 mg/kg, ip twice a day treated 3 days after tumor cell injection measured for 13 days after tumor implantation. In kind it is functional. To be noted: 72 h, time 3 day, read-out: TGI.
Series [8] concerns C6. The series is described as follows: Antitumor activity against rat C6 cells inoculated orthotopic Sprague-Dawley rat model assessed as increase in E-cadherin in tumor tissue at 50 mg/kg, ip twice a day treated 3 days after tumor cell injection measured for 13 days after tumor implantation by Western blot analysis. It counts as functional, organism-based. Conditions: time 3.0 day.

Series [9] is described as follows: Toxicity in rat C6 cells inoculated orthotopic Sprague-Dawley rat model assessed as body weight change at 50 mg/kg, ip twice a day administered for 13 days of tumor implantation. It counts as organism-based. Conditions: in vivo, 312 h, time 13 day.
Series [10] has as its system C6. Description: Antitumor activity against rat C6 cells inoculated orthotopic Sprague-Dawley rat model assessed as decrease in PGE2 in tumor tissue at 50 mg/kg, ip twice a day treated 3 days after tumor cell injection measured for 13 days after tumor implantation […]. It counts as functional, organism-based. Conditions: time 3.0 day.

In the case of `Cc1ccc(-c2cc(C(F)(F)F)nn2-c2ccc(S(N)(=O)=O)cc2)cc1` [CELECOXIB], the IC50 with C6 [1], in the series with U-87 MG and in the series with U-251 was above 40 µM each time.

On to `O=C(NCCc1c[nH]c2ccccc12)c1ccccc1Nc1ccccc1Br`, for which the IC50 in the series on C6 [1] is 17.9 µM; in the series on U-87 MG it was above 40 µM; with U-251, 21.4 µM; in series [2] it was above 40 µM.

`O=C(NCCc1c[nH]c2ccccc12)c1ccccc1Nc1ccc(Cl)cc1`: the IC50 is above 40 µM with C6 [1], above 40 µM in the series with U-87 MG, 17.9 µM with U-251 and 3.98 µM in [2].

Regarding `O=C(NCCc1c[nH]c2ccccc12)c1ccccc1Nc1cccnc1Cl`, the IC50 in the series with C6 [1] was 24.1 µM; with U-87 MG, above 40 µM; with U-251, 27.5 µM; in series [2], 2.96 µM.

As to `COc1ccc2[nH]cc(CCNC(C)=O)c2c1` [MELATONIN], the IC50 in the series with C6 [1], with U-87 MG and in the series with U-251 was above 40 µM in each case.

In the case of `Cc1ccc(Nc2ccccc2C(=O)NCCc2c[nH]c3ccccc23)cn1`, the IC50 was above 40 µM in the series with C6 [1], above 40 µM in the series on U-87 MG, 17.9 µM with U-251 and 19.6 µM in [2].

For the molecule `O=C(NCCc1c[nH]c2ccccc12)c1ccccc1Nc1ccc2nccnc2c1`, the 50% inhibitory concentration (IC50) (in the series on C6 [1]; in the series on U-87 MG; in the series with U-251; in series [2]) was above 40 µM each time.

Regarding `O=C(NCCc1c[nH]c2ccccc12)c1ccccc1Nc1ccccc1F`, the IC50 in the series with C6 [1] was above 40 µM; in the series on U-87 MG it was above 40 µM; in the series on U-251, 26.2 µM; in [2], 4.23 µM.

Consider `COc1ccc(Nc2ccccc2C(=O)NCCc2c[nH]c3ccccc23)cc1`, for which the IC50 with C6 [1] is above 40 µM; with U-87 MG, above 40 µM; in the series on U-251 it was 32.3 µM; in series [2] it was 6.21 µM.

Take `O=C(NCCc1c[nH]c2ccccc12)c1ccccc1Nc1cccc2cccnc12`: the IC50 (in the series with C6 [1]; in the series with U-87 MG; in the series on U-251; in series [2]) was above 40 µM throughout.

Take `O=C(NCCc1c[nH]c2ccccc12)c1ccccc1Nc1ccccc1I`: the IC50 is above 40 µM in the series on C6 [1], above 40 µM in the series with U-87 MG, 32.9 µM with U-251 and above 40 µM in series [2].

As to `O=C(NCCc1c[nH]c2ccccc12)c1ccccc1Nc1cccc(Cl)c1`, the IC50 in the series on C6 [1] is above 40 µM; in the series with U-87 MG, above 40 µM; in the series with U-251 it was 22.2 µM; in series [2], above 40 µM.

As for `Cc1ccccc1Nc1ccccc1C(=O)NCCc1c[nH]c2ccccc12`, the IC50 with C6 [1] is above 40 µM; with U-87 MG, above 40 µM; with U-251 it was 30.5 µM; in series [2], above 40 µM.

Take `O=C(NCCc1c[nH]c2ccccc12)c1ccccc1Nc1ccc(Br)cc1`: the IC50 was above 40 µM with C6 [1], above 40 µM with U-87 MG, above 40 µM in the series on U-251 and 5.68 µM in series [2].

With `CN(C)c1ccc(Nc2ccccc2C(=O)NCCc2c[nH]c3ccccc23)cc1`, the IC50 in the series on C6 [1] is above 40 µM; in the series with U-87 MG, above 40 µM; in the series on U-251, above 40 µM; in [2] it was 1.43 µM. Moreover, the inhibition entry with BV-2 was “Active”.

Consider `O=C(NCCc1c[nH]c2ccccc12)c1ccccc1Nc1ccc(C(F)(F)F)cc1`, for which the concentration for half-maximal inhibition (IC50) is above 40 µM with C6 [1], 35.7 µM in the series on U-87 MG, 17.3 µM with U-251 and above 40 µM in series [2].

In the case of `Cc1ncccc1Nc1ccccc1C(=O)NCCc1c[nH]c2ccccc12`, the half-inhibitory concentration (IC50) in the series on C6 [1] is above 40 µM; with U-87 MG, above 40 µM; in the series with U-251 it was 24.6 µM; in series [2], 1.96 µM.

For `O=C(NCCc1c[nH]c2ccccc12)c1ccccc1Nc1cccc(F)c1`, the IC50 in the series with C6 [1] was above 40 µM; in the series on U-87 MG, above 40 µM; with U-251, 20.4 µM; in series [2], above 40 µM.

Take `O=C(NCCc1c[nH]c2ccccc12)c1ccccc1Nc1cccc(Br)c1`: the half-inhibitory concentration (IC50) in the series on C6 [1] is above 40 µM; in the series with U-87 MG it was above 40 µM; with U-251 it was 21 µM; in [2], above 40 µM.

As to `O=C(NCCc1c[nH]c2ccccc12)c1ccccc1Nc1ccccc1Cl`, the IC50 with C6 [1] was above 40 µM; in the series on U-87 MG, above 40 µM; in the series with U-251, 14.8 µM; in [2], above 40 µM.

As for `Cc1cncc(Nc2ccccc2C(=O)NCCc2c[nH]c3ccccc23)c1`, the 50% inhibitory concentration (IC50) in the series on C6 [1] was above 40 µM; in the series with U-87 MG, above 40 µM; in the series with U-251 it was 24.4 µM; in series [2], 17.6 µM.

`O=C(NCCc1c[nH]c2ccccc12)c1ccccc1Nc1cncc(Br)c1`: the IC50 in the series on C6 [1] is above 40 µM; with U-87 MG it was above 40 µM; with U-251, 25.1 µM; in [2], above 40 µM.

On to `Cc1cccc(Nc2ccccc2C(=O)NCCc2c[nH]c3ccccc23)c1`, for which the half-inhibitory concentration (IC50) with C6 [1] is above 40 µM; with U-87 MG it was 23.4 µM; in the series on U-251, 13.3 µM; in [2], 31 µM.

Turning to `O=C(NCCc1c[nH]c2ccccc12)c1ccccc1Nc1ccc(F)cc1`, the IC50 was 27.1 µM with C6 [1], above 40 µM in the series on U-87 MG, 12.8 µM in the series with U-251 and 2.46 µM in series [2].

As to `O=C(NCCc1c[nH]c2ccccc12)c1ccccc1Nc1cccnc1`, the IC50 with C6 [1] was above 40 µM; in the series with U-87 MG, above 40 µM; with U-251, 25.2 µM; in series [2], 23.7 µM.

With `Cn1nnc2c(C(N)=O)ncn2c1=O` [TEMOZOLOMIDE], the outcome in the series with C6 [3], in the series with C6 [4], in the series on C6 [5], with C6 [6], in the series on C6 [8] and in the series with C6 [10] was Active. The inhibition in vivo at 50 mg/kg with C6 [7] is 54.8%. Besides, the Activity result in series [9] is given as “Toxic”.

Turning to `Nc1ccccc1Nc1ccccc1C(=O)NCCc1c[nH]c2ccccc12`, the IC50 was above 40 µM with C6 [1], above 40 µM with U-87 MG, above 40 µM in the series with U-251 and 1.21 µM in series [2]. In addition, the inhibition result with BV-2 is “Active”.

On to `CCCCc1ccc(Nc2ccccc2C(=O)NCCc2c[nH]c3ccccc23)cc1`, for which the half-maximal inhibitory concentration (IC50) in the series with C6 [1] is above 33.7 µM; in the series with U-87 MG it was above 40 µM; in the series on U-251, 18.2 µM; in series [2] it was above 40 µM.

With `Cc1ccc(Nc2ccccc2C(=O)NCCc2c[nH]c3ccccc23)cc1`, the IC50 in the series on C6 [1] was above 40 µM; with U-87 MG, 34.7 µM; in the series with U-251, 13.7 µM; in [2], 5.96 µM.
